For orientation: melting point means the temperature of the solid-liquid transition. For `CN1C[C@H](c2cc(Cl)cc(Cl)c2)[C@@H](C(=O)Nc2cccc(F)c2F)C1=O` [Compound 1270], the melting point lay in the range of 88 to 92 °C.

Compound `O=C1NC[C@H](c2cc(Cl)cc(Cl)c2)[C@H]1C(=O)Nc1cccc(F)c1F` [Compound 1273] registered a melting point of 136 to 140 °C.

As for `O=C1NC[C@H](c2ccc(C(F)(F)F)cn2)[C@H]1C(=O)Nc1ccc(F)c(F)c1F` [Compound 1105], the melting point lay within 173 to 176 °C.

`C=C(C)c1ccc([C@H]2CN(C)C(=O)[C@@H]2C(=O)Nc2cccc(F)c2C)cc1` [Compound 1150] had a melting point of 137 to 141 °C.

These data come from patent publication US12077503B2, “Substituted cyclic amides and their use as herbicides” (FMC CORPORATION, priority 2015, dated 2024).
